This note sets out measurements from publication PMC5575475 (Angewandte Chemie (International Ed. in English), 2017).

The target of series [1] is T1, 14-3-3β (Homo sapiens, UniProt P31946).
T1 sequence (P31946 1-246): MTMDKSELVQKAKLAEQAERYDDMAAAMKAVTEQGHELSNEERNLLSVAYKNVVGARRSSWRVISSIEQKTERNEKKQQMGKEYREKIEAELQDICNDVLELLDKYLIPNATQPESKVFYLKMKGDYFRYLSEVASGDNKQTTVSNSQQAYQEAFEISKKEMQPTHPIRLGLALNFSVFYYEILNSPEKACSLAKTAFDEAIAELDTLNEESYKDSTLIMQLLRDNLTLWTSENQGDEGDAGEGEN
In kind it is binding.

Series [2] deals with T1, 14-3-3β. The class given is binding. The conditions noted are these: at very low and very high FGG-ERα peptide concentrations.
Series [3] concerns the target 14‐3‐3β adapter protein (dimer) (UniProt P31946). Description: fluorescence polarisation. On the technique in general: Polarisation of emitted light reports the rotation of a fluorescent probe.
For series [4] the target is unchanged. Kind of series: fluorescence polarisation. This is another data set of the same source.
Series [5] concerns the molecule itself. Kind of series: crystal structure.
The mark [6] stands for this setting: FGG-ERα titration at constant Q8 concentrations.

Like-named read-outs stand apart in the source and are kept apart here.

`O=C1N2CN3C(=O)N4CN5C(=O)N6CN7C(=O)N8CN9C(=O)N%10CN%11C(=O)N%12CN%13C(=O)N%14CN%15C(=O)N%16CN1C1C2N2CN%17C(=O)N(CN%18C(=O)N(CN%19C(=O)N(CN%20C(=O)N(CN%21C(=O)N(CN%22C(=O)N(CN%23C(=O)N(CN1C2=O)C%16C%15%23)C%14C%13%22)C%12C%11%21)C%10C9%20)C8C7%19)C6C5%18)C4C3%17` (stereo not shown) [Q8, Cucurbit[8]uril]: in series [1] (setting [6]), the “Q8 concentration at which the enhancement effect appears to saturate” value was “approximately 10 μM” and the “combinatorial inhibition at high Q8 concentrations” value is given as “no evidence of combinatorial inhibition”. In addition, in series [2], the “effect of Q8” value is “negligible”.

With Cucurbit[7]uril [Q7], in series [1] (Q7 instead of Q8 (Figure 2E)), the “enhancement of apparent affinity of FGG-ERα for 14-3-3” value is reported as “did not enhance the apparent affinity”.

In general, IC50 refers to the concentration needed to halve the response being measured. Take “FGG‐ERα phosphopeptide (15‐mer: N‐terminal FGG motif fused to the wild‐type 14‐3‐3‐binding epitope of estrogen receptor α)”: the IC50 in series [3] is 0.07 µM; in series [4] it was 1 µM.

B1: truncated 14‐3‐3βΔC variant (domain or fragment)
chain: QGSMTMDKSELVQKAKLAEQAERYDDMAAAMKAVTEQGHELSNEERNLLSVAYKNVVGARRSSWRVISSIEQKTERNEKKQQMGKEYREKIEAELQDICNDVLELLDKYLIPNATQPESKVFYLKMKGDYFRYLSEVASGDNKQTTVSNSQQAYQEAFEISKKEMQPTHPIRLGLALNFSVFYYEILNSPEKACSLAKTAFDEAIAELDTLNEESYKDSTLIMQLLRDNLTLWTSENQGDEGDAGEGEN
For orientation: stoichiometry N means a count of units in the complex or per binding partner. Turning to B1, the “stoichiometry N” value in series [5] was 2.
